Results published in patent publication US20100104534A1, “HYDRAZIDO-PEPTIDES AS INHIBITORS OF HCV NS3-PROTEASE” (priority 2007, published 2010).
pIC50: −log10 of the molar value.

Test system: replicon
Assay: Replicon assay
Type: cell-based

CCCN(NC(=O)[C@@H]1[C@@H]2[C@H](CN1C(=O)[C@@H](NC(=O)N[C@H](CN1C(=O)CC(C)(C)CC1=O)C(C)(C)C)C(C)(C)C)C2(C)C)C(=O)N[C@@H](C)c1ccccc1 [Compound 3] and CCCN(NC(=O)[C@@H]1[C@@H]2[C@H](CN1C(=O)[C@@H](NC(=O)N[C@H](CN1C(=O)C3CCC(C3)C1=O)C(C)(C)C)C(C)(C)C)C2(C)C)C(=O)N[C@@H](C)c1ccccc1 [Compound 5] cannot be ordered by pIC50: ≥ 6.30 for the first, ≥ 6.30 for the second.

C[C@H](NC(=O)N(CC1CC1)NC(=O)[C@@H]1[C@@H]2[C@H](CN1C(=O)[C@@H](NC(=O)N[C@H](CN1C(=O)C3CCC(C3)C1=O)C(C)(C)C)C(C)(C)C)C2(C)C)c1ccccc1 [Compound 6] and CCCN(NC(=O)[C@@H]1[C@@H]2[C@H](CN1C(=O)[C@@H](NC(=O)N[C@H](CN(C)S(C)(=O)=O)C(C)(C)C)C(C)(C)C)C2(C)C)C(=O)N[C@@H](C)c1ccccc1 [Compound 2] cannot be ordered by pIC50: 5.52 to 6.30 for the first, ≥ 6.30 for the second.

Work on CCCN(NC(=O)[C@@H]1[C@@H]2[C@H](CN1C(=O)[C@@H](NC(=O)NC1(CS(=O)(=O)C(C)(C)C)CCCCC1)C1(C)CCCCC1)C2(C)C)C(=O)N[C@@H](C)c1ccccc1 [Compound 1] yielded a pIC50 of 5.52 to 6.30.
